# Target: Aβ42 (Homo sapiens, UniProt P05067)
# Assay: Th-T (thioflavin-T) assay of Aβ42 aggregation
# Assay type: biochemical
# Settings: for Th-T fluorescence of Aβ42 with compound, mean of three wells (Fig. 7a source data): concentration 50, unit not given
# Sequence of Aβ42 (P05067 672-713): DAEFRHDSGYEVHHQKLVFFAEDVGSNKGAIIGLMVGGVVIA
structure (smiles),measurement,setting,value
C=C1CC[C@@H]2[C@](C)(CC[C@H]3O[C@H](C=C(C)C)C[C@@]23C)[C@@H]1Cc1c(OC)oc(CO)c(C)c1=O [Compound 20],"Th-T fluorescence of Aβ42 with compound, mean of three wells (Fig. 7a source data)",time-course reading M143,2.125
same,"Th-T fluorescence of Aβ42 with compound, mean of three wells (Fig. 7a source data)",time-course reading M144,2.117
same,"Th-T fluorescence of Aβ42 with compound, mean of three wells (Fig. 7a source data)",time-course reading M145,2.122
same,"Th-T fluorescence of Aβ42 (sheet Fig. 7a), mean of three wells","head suffix _10 (concentration 10), reading M63",3.458
same,"Th-T fluorescence of Aβ42 (sheet Fig. 7a), mean of three wells","head suffix _10 (concentration 10), reading M64",3.444
same,"Th-T fluorescence of Aβ42 (sheet Fig. 7a), mean of three wells","head suffix _10 (concentration 10), reading M65",3.449
same,"Th-T fluorescence of Aβ42 (sheet Fig. 7a), mean of three wells","head suffix _10 (concentration 10), reading M66",3.444
same,"Th-T fluorescence of Aβ42 (sheet Fig. 7a), mean of three wells","head suffix _10 (concentration 10), reading M67",3.437
same,"Th-T fluorescence of Aβ42 (sheet Fig. 7a), mean of three wells","head suffix _10 (concentration 10), reading M68",3.439
same,"Th-T fluorescence of Aβ42 (sheet Fig. 7a), mean of three wells","head suffix _10 (concentration 10), reading M69",3.4039
same,"Th-T fluorescence of Aβ42 (sheet Fig. 7a), mean of three wells","head suffix _10 (concentration 10), reading M70",3.402
same,"Th-T fluorescence of Aβ42 (sheet Fig. 7a), mean of three wells","head suffix _10 (concentration 10), reading M71",3.423
same,"Th-T fluorescence of Aβ42 (sheet Fig. 7a), mean of three wells","head suffix _10 (concentration 10), reading M72",3.425
same,"Th-T fluorescence of Aβ42 (sheet Fig. 7a), mean of three wells","head suffix _10 (concentration 10), reading M73",3.414
same,"Th-T fluorescence of Aβ42 (sheet Fig. 7a), mean of three wells","head suffix _10 (concentration 10), reading M74",3.412
same,"Th-T fluorescence of Aβ42 (sheet Fig. 7a), mean of three wells","head suffix _10 (concentration 10), reading M75",3.393
same,"Th-T fluorescence of Aβ42 (sheet Fig. 7a), mean of three wells","head suffix _10 (concentration 10), reading M76",3.416
same,"Th-T fluorescence of Aβ42 (sheet Fig. 7a), mean of three wells","head suffix _10 (concentration 10), reading M77",3.391
same,"Th-T fluorescence of Aβ42 (sheet Fig. 7a), mean of three wells","head suffix _10 (concentration 10), reading M78",3.393
same,"Th-T fluorescence of Aβ42 (sheet Fig. 7a), mean of three wells","head suffix _10 (concentration 10), reading M79",3.378
same,"Th-T fluorescence of Aβ42 (sheet Fig. 7a), mean of three wells","head suffix _10 (concentration 10), reading M80",3.379
same,"Th-T fluorescence of Aβ42 (sheet Fig. 7a), mean of three wells","head suffix _10 (concentration 10), reading M81",3.38
same,"Th-T fluorescence of Aβ42 (sheet Fig. 7a), mean of three wells","head suffix _10 (concentration 10), reading M82",3.375
same,"Th-T fluorescence of Aβ42 (sheet Fig. 7a), mean of three wells","head suffix _10 (concentration 10), reading M83",3.373
same,"Th-T fluorescence of Aβ42 (sheet Fig. 7a), mean of three wells","head suffix _10 (concentration 10), reading M84",3.355
same,"Th-T fluorescence of Aβ42 (sheet Fig. 7a), mean of three wells","head suffix _20 (concentration 20), reading M63",3.439
same,"Th-T fluorescence of Aβ42 (sheet Fig. 7a), mean of three wells","head suffix _20 (concentration 20), reading M64",3.419
same,"Th-T fluorescence of Aβ42 (sheet Fig. 7a), mean of three wells","head suffix _20 (concentration 20), reading M65",3.416
same,"Th-T fluorescence of Aβ42 (sheet Fig. 7a), mean of three wells","head suffix _20 (concentration 20), reading M66",3.432
same,"Th-T fluorescence of Aβ42 (sheet Fig. 7a), mean of three wells","head suffix _20 (concentration 20), reading M67",3.438
same,"Th-T fluorescence of Aβ42 (sheet Fig. 7a), mean of three wells","head suffix _20 (concentration 20), reading M68",3.449
same,"Th-T fluorescence of Aβ42 (sheet Fig. 7a), mean of three wells","head suffix _20 (concentration 20), reading M69",3.405
same,"Th-T fluorescence of Aβ42 (sheet Fig. 7a), mean of three wells","head suffix _20 (concentration 20), reading M70",3.395
same,"Th-T fluorescence of Aβ42 (sheet Fig. 7a), mean of three wells","head suffix _20 (concentration 20), reading M71",3.403
same,"Th-T fluorescence of Aβ42 (sheet Fig. 7a), mean of three wells","head suffix _20 (concentration 20), reading M72",3.419
same,"Th-T fluorescence of Aβ42 (sheet Fig. 7a), mean of three wells","head suffix _20 (concentration 20), reading M73",3.421
same,"Th-T fluorescence of Aβ42 (sheet Fig. 7a), mean of three wells","head suffix _20 (concentration 20), reading M74",3.387
same,"Th-T fluorescence of Aβ42 (sheet Fig. 7a), mean of three wells","head suffix _20 (concentration 20), reading M75",3.3567
same,"Th-T fluorescence of Aβ42 (sheet Fig. 7a), mean of three wells","head suffix _20 (concentration 20), reading M76",3.391
same,"Th-T fluorescence of Aβ42 (sheet Fig. 7a), mean of three wells","head suffix _20 (concentration 20), reading M77",3.3972
same,"Th-T fluorescence of Aβ42 (sheet Fig. 7a), mean of three wells","head suffix _20 (concentration 20), reading M78",3.402
same,"Th-T fluorescence of Aβ42 (sheet Fig. 7a), mean of three wells","head suffix _20 (concentration 20), reading M79",3.362
same,"Th-T fluorescence of Aβ42 (sheet Fig. 7a), mean of three wells","head suffix _20 (concentration 20), reading M80",3.347
same,"Th-T fluorescence of Aβ42 (sheet Fig. 7a), mean of three wells","head suffix _20 (concentration 20), reading M81",3.353
same,"Th-T fluorescence of Aβ42 (sheet Fig. 7a), mean of three wells","head suffix _20 (concentration 20), reading M82",3.387
same,"Th-T fluorescence of Aβ42 (sheet Fig. 7a), mean of three wells","head suffix _20 (concentration 20), reading M83",3.377
same,"Th-T fluorescence of Aβ42 (sheet Fig. 7a), mean of three wells","head suffix _20 (concentration 20), reading M84",3.32
same,"Th-T fluorescence of Aβ42 (sheet Fig. 7a), mean of three wells","head suffix _50 (concentration 50), reading M63",2.073
same,"Th-T fluorescence of Aβ42 (sheet Fig. 7a), mean of three wells","head suffix _50 (concentration 50), reading M64",2.076
same,"Th-T fluorescence of Aβ42 (sheet Fig. 7a), mean of three wells","head suffix _50 (concentration 50), reading M65",2.0862
same,"Th-T fluorescence of Aβ42 (sheet Fig. 7a), mean of three wells","head suffix _50 (concentration 50), reading M66",2.098
same,"Th-T fluorescence of Aβ42 (sheet Fig. 7a), mean of three wells","head suffix _50 (concentration 50), reading M67",2.131
same,"Th-T fluorescence of Aβ42 (sheet Fig. 7a), mean of three wells","head suffix _50 (concentration 50), reading M68",2.106
same,"Th-T fluorescence of Aβ42 (sheet Fig. 7a), mean of three wells","head suffix _50 (concentration 50), reading M69",2.087
same,"Th-T fluorescence of Aβ42 (sheet Fig. 7a), mean of three wells","head suffix _50 (concentration 50), reading M70",2.078
same,"Th-T fluorescence of Aβ42 (sheet Fig. 7a), mean of three wells","head suffix _50 (concentration 50), reading M71",2.105
same,"Th-T fluorescence of Aβ42 (sheet Fig. 7a), mean of three wells","head suffix _50 (concentration 50), reading M72",2.132

# Source: article PMC7156458, “Synthetic biology based construction of biological activity-related library of fungal decalin-containing diterpenoid pyrones” (Nature Communications, 2020)
